This passage reports IC50 results from patent US20260356851A1, “TRICYCLIC COMPOUNDS AND USES THEREOF” (HUTCHMED LIMITED, priority 2023, published 2026).

Usually IC50 stands for the concentration that gives 50% inhibition.

Holding throughout (assay type): cell-based
Experiment [1] deals with T1, pERK1/2 (Thr202/Tyr204), NCI-1H358 (KRAS G12C) (Homo sapiens, UniProt P01116, G12C).
T1 construct: pERK1/2 HTRF read-out
As to the kind of experiment: Assay of intracellular pERK1/2 (Thr202/Tyr204) phosphorylation in NCI-H358 cells (KRAS G12C). The conditions noted are these: pERK1/2, 2 days, read-out: NCI-H358 (KRAS G12C) IC50. In outline:
(§1)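 HTRF detection of Thr202/Tyr204-phosphorylated ERK1/2 (665/615 nm ratio) in lysates from cells treated 2 days with serially 3-fold diluted compound.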

Experiment [2] has as its target T2, pERK1/2 (Thr202/Tyr204), PANC-1 (KRAS G121D) (Homo sapiens, UniProt P01116, G12D).
T2 construct: pERK1/2 HTRF read-out
Put plainly: Assay of intracellular pERK1/2 (Thr202/Tyr204) phosphorylation in PANC-1 cells (KRAS G12D). The conditions noted are these: pERK1/2, 2 days, read-out: PANC-1 (KRAS G12D) IC50. In outline:
as §1

The target in experiment [3] is T3, pERK1/2 (Thr202/Tyr204), NCI-1H441 (KRAS G12V) (Homo sapiens, UniProt P01116, G12V).
T3 construct: pERK1/2 HTRF read-out
Put plainly: Assay of intracellular pERK1/2 (Thr202/Tyr204) phosphorylation in NCI-H441 cells (KRAS G12V). The settings on record: pERK1/2, 2 days, read-out: NCI-H441 (KRAS G12V) IC50. In outline: as §1

T2 sequence (P01116 1-188 isoform P01116-2 G12D): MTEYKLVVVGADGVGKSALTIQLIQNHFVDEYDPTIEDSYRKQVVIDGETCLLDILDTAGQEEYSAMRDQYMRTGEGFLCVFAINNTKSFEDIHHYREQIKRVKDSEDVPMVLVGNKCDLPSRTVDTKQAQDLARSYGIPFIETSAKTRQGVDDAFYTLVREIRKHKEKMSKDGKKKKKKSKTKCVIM
T1 sequence (P01116 1-188 isoform P01116-2 G12C): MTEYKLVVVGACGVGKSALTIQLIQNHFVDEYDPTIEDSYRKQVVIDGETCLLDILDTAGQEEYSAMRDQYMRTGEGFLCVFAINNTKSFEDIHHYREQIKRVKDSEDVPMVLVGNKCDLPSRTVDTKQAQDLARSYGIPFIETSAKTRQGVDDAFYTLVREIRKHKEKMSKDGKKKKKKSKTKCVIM
T3 sequence (P01116 1-188 isoform P01116-2 G12V): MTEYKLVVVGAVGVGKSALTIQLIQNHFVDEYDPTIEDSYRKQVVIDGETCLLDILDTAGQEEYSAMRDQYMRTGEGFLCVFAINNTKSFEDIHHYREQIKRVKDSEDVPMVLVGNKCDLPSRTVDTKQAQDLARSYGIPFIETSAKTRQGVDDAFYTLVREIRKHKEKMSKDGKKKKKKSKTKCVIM

For `[2H]C1([2H])CN(C(C)c2cccnc2N)c2nc(OC[C@@]34CCCN3C[C@H](F)C4)nc3c(F)c(-c4cc(N)cc(C)c4C(F)(F)F)nc(c23)O1` (single isomer, unassigned) [Compound 153, 3-((R or S)-1-(5-(5-amino-3-methyl-2-(trifluoromethyl)phenyl)-4-fluoro-2-(((2R,7aS)-2-fluorotetrahydro-1H-pyrrolizin-7a(5H)-yl)methoxy)-8,9-dihydro-10H-7-oxa-1,3,6,10-tetraazacyclohepta[de]naphthalen-10-yl-8,8-d2)ethyl)pyridin-2-amine], the IC50 in experiment [1] came to 0.2 nM; in experiment [2], 2 nM; in experiment [3], 0.5 nM.
The corresponding values for `[2H]C1([2H])CN(C(C)c2cccnc2N)c2nc(OC[C@@]34CCCN3C[C@H](F)C4)nc3c(F)c(-c4cc(N)cc(C)c4C(F)(F)F)nc(c23)O1` (single isomer, unassigned) [Compound 154, 3-((R or S)-1-(5-(5-amino-3-methyl-2-(trifluoromethyl)phenyl)-4-fluoro-2-(((2R,7aS)-2-fluorotetrahydro-1H-pyrrolizin-7a(5H)-yl)methoxy)-8,9-dihydro-10H-7-oxa-1,3,6,10-tetraazacyclohepta[de]naphthalen-10-yl-8,8-d2)ethyl)pyridin-2-amine] are 21 nM, > 100 nM and 31 nM.
In the case of `Cc1cc(N)cc(-c2nc3c4c(nc(OC[C@@H]5CCCN5C5COC5)nc4c2F)N(C(C)c2cccnc2N)CCO3)c1C(F)(F)F` (single isomer, unassigned) [Compound 160, 3-((R or S)-1-(5-(5-amino-3-methyl-2-(trifluoromethyl)phenyl)-4-fluoro-2-(((S)-1-(oxetan-3-yl)pyrrolidin-2-yl)methoxy)-8,9-dihydro-10H-7-oxa-1,3,6,10-tetraazacyclohepta[de]naphthalen-10-yl)ethyl)pyridin-2-amine], the IC50 was 0.5 nM in experiment [1], > 100 nM in experiment [2] and 2 nM in experiment [3].
On the same counts, the results for `Cc1cc(N)cc(-c2nc3c4c(nc(OC[C@@H]5CCCN5C5COC5)nc4c2F)N(C(C)c2cccnc2N)CCO3)c1C(F)(F)F` (single isomer, unassigned) [Compound 161, 3-((R or S)-1-(5-(5-amino-3-methyl-2-(trifluoromethyl)phenyl)-4-fluoro-2-(((S)-1-(oxetan-3-yl)pyrrolidin-2-yl)methoxy)-8,9-dihydro-10H-7-oxa-1,3,6,10-tetraazacyclohepta[de]naphthalen-10-yl)ethyl)pyridin-2-amine] are 14 nM, > 100 nM and 48 nM.
The corresponding values for `Cc1cc(N)cc(-c2nc3c4c(nc(OC[C@@]56CCCN5C[C@H](F)C6)nc4c2F)N([C@H](C)c2cccnc2N)CCCO3)c1C(F)(F)F` (single isomer, unassigned) [Compound 166, 3-((R or S)-1-(5-(5-amino-3-methyl-2-(trifluoromethyl)phenyl)-4-fluoro-2-(((2R,7aS)-2-fluorotetrahydro-1H-pyrrolizin-7a(5H)-yl)methoxy)-9,10-dihydro-77-oxa-1,3,6,11-tetraazacycloocta[de]naphthalen-11(8H)-yl)ethyl)pyridin-2-amine] are 69 nM, > 100 nM and > 100 nM.
Take `Cc1cc(N)cc(-c2nc3c4c(nc(OC[C@@]56CCCN5C[C@H](F)C6)nc4c2F)N(C(C)c2cccnc2N)CCCO3)c1C(F)(F)F` (single isomer, unassigned) [Compound 167, 3-((R or S)-1-(5-(5-amino-3-methyl-2-(trifluoromethyl)phenyl)-4-fluoro-2-(((2R,7aS)-2-fluorotetrahydro-1H-pyrrolizin-7a(5H)-yl)methoxy)-9,10-dihydro-7-oxa-1,3,6,11-tetraazacycloocta[de]naphthalen-11(8H)-yl)ethyl)pyridin-2-amine]: the IC50 in experiment [1], in experiment [2] and in experiment [3] was > 100 nM each time.
For `[2H][C@@]1(F)CN2CCC[C@@]2(COc2nc3c4c(nc(-c5cc(N)c(F)c(C)c5C(F)(F)F)c(F)c4n2)OCCN3C(C)c2cccnc2N)C1` (single isomer, unassigned) [Compound 169, (*)3-(1-(5-(5-amino-4-fluoro-3-methyl-2-(trifluoromethyl)phenyl)-4-fluoro-2-(((2S or 2R,7aS)-2-fluorotetrahydro-1H-pyrrolizin-7a(5H)-yl-2-d)methoxy)-8,9-dihydro-1OH-7-oxa-1,3,6,10-tetraazacyclohepta[de]naphthalen-10-yl)ethyl)pyridin-2-amine], the IC50 in experiment [1] turned out to be 0.7 nM; in experiment [2], 17 nM; in experiment [3] it was 2 nM.
With `[2H][C@]1(F)CN2CCC[C@@]2(COc2nc3c4c(nc(-c5cc(N)c(F)c(C)c5C(F)(F)F)c(F)c4n2)OCCN3C(C)c2cccnc2N)C1` (single isomer, unassigned) [Compound 170, (*)3-(1-(5-(5-amino-4-fluoro-3-methyl-2-(trifluoromethyl)phenyl)-4-fluoro-2-(((2S or 2R,7aS)-2-fluorotetrahydro-1H-pyrrolizin-7a(5H)-yl-2-d)methoxy)-8,9-dihydro-1OH-7-oxa-1,3,6,10-tetraazacyclohepta[de]naphthalen-10-yl)ethyl)pyridin-2-amine], the results for the IC50 in experiment [1], in experiment [2] and in experiment [3] were 0.2 nM, 2 nM and 0.5 nM, respectively.
Consider `[2H]C1([2H])CN(C(C)c2cccnc2N)c2nc(OC[C@@]34CCCN3C[C@H](F)C4)nc3c(F)c(-c4cc(N)c(F)c(C)c4C(F)(F)F)nc(c23)O1` (single isomer, unassigned) [Compound 183, 3-((R or S)-1-(5-(5-amino-4-fluoro-3-methyl-2-(trifluoromethyl)phenyl)-4-fluoro-2-(((2R,7aS)-2-fluorotetrahydro-1H-pyrrolizin-7a(5H)-yl)methoxy)-8,9-dihydro-10H-7-oxa-1,3,6,10-tetraazacyclohepta[de]naphthalen-10-yl-8,8-d2)ethyl)pyridin-2-amine], for which the IC50 turned out to be 0.1 nM in experiment [1], 1 nM in experiment [2] and 0.3 nM in experiment [3].
In the case of `[2H]C1([2H])CN(C(C)c2cccnc2N)c2nc(OC[C@@]34CCCN3C[C@H](F)C4)nc3c(F)c(-c4cc(N)c(F)c(C)c4C(F)(F)F)nc(c23)O1` (single isomer, unassigned) [Compound 184, 3-((R or S)-1-(5-(5-amino-4-fluoro-3-methyl-2-(trifluoromethyl)phenyl)-4-fluoro-2-(((2R,7aS)-2-fluorotetrahydro-1H-pyrrolizin-7a(5H)-yl)methoxy)-8,9-dihydro-10H-7-oxa-1,3,6,10-tetraazacyclohepta[de]naphthalen-10-yl-8,8-d2)ethyl)pyridin-2-amine], the IC50 stood at 5 nM in experiment [1], 28 nM in experiment [2] and 13 nM in experiment [3].
The corresponding values for `[2H]C1([2H])Oc2nc(-c3cc(N)c(F)c(C)c3C(F)(F)F)c(F)c3nc(OC[C@@]45CCCN4C[C@H](F)C5)nc(c23)N(C(C)c2cccnc2N)C1([2H])[2H]` (single isomer, unassigned) [Compound 199, 3-((R or S)-1-(5-(5-amino-4-fluoro-3-methyl-2-(trifluoromethyl)phenyl)-4-fluoro-2-(((2R,7aS)-2-fluorotetrahydro-1H-pyrrolizin-7a(5H)-yl)methoxy)-8,9-dihydro-10H-7-oxa-1,3,6,10-tetraazacyclohepta[de]naphthalen-10-yl-8,8,9,9-d4)ethyl)pyridin-2-amine] are 0.2 nM, 1 nM and 0.2 nM.
Turning to `[2H]C1([2H])Oc2nc(-c3cc(N)c(F)c(C)c3C(F)(F)F)c(F)c3nc(OC[C@@]45CCCN4C[C@H](F)C5)nc(c23)N(C(C)c2cccnc2N)C1([2H])[2H]` (single isomer, unassigned) [Compound 200, 3-((R or S)-1-(5-(5-amino-4-fluoro-3-methyl-2-(trifluoromethyl)phenyl)-4-fluoro-2-(((2R,7aS)-2-fluorotetrahydro-1H-pyrrolizin-7a(5H)-yl)methoxy)-8,9-dihydro-10H-7-oxa-1,3,6,10-tetraazacyclohepta[de]naphthalen-10-yl-8,8,9,9-d4)ethyl)pyridin-2-amine], the results for the IC50 in experiment [1], in experiment [2] and in experiment [3] were 7 nM, 63 nM and 10 nM, respectively.
Consider `[2H]C1([2H])Oc2nc(-c3cc(N)c(F)c(C)c3C(F)(F)F)c(F)c3nc(OC[C@@H]4C[C@@H](F)CN4C)nc(c23)N(C(C)c2cccnc2N)C1([2H])[2H]` (single isomer, unassigned) [Compound 202, 3-((R or S)-1-(5-(5-amino-4-fluoro-3-methyl-2-(trifluoromethyl)phenyl)-4-fluoro-2-(((2S,4R)-4-fluoro-1-methylpyrrolidin-2-yl)methoxy)-8,9-dihydro-10H-7-oxa-1,3,6,10-tetraazacyclohepta[de]naphthalen-10-yl-8,8,9,9-d4)ethyl)pyridin-2-amine], for which the IC50 stood at 0.4 nM in experiment [1], 13 nM in experiment [2] and 1 nM in experiment [3].
